Article PMC3039689, “Identification of Small Molecule Lead Compounds for Visceral Leishmaniasis Using a Novel Ex Vivo Splenic Explant Model System” (PLoS Neglected Tropical Diseases, 2011)
Where a name gives a salt, the structure may show the parent alone. Read-outs that look alike come from different tables or passages of the source.

What was measured:
[1] = test system: luciferase-transfected Leishmania donovani; experiment: Anti-leishmanial efficacy (EC50) in the ex vivo splenic explant model; format: cell-based
Protocol: To establish the plate assay for drug screening, the spleens from 2 infected hamsters were aseptically removed and placed in a Petri dish containing 5 mL of Collagenase D (Roche) at 2 mg/mL of buffer (10 mM Hepes pH 7.4, 150 mM NaCl, 5 mM KCl, 1 mM MgCl2, 1.8 mM CaCl2). The spleen was infiltrated by injection with approximately 2 mL of Collagenase solution, the tissue was cut into small pieces using sharp scissors, and incubated for 20 minutes at 37°C. The cell suspension and remaining tissue fragments were gently passed through a 100 µm cell strainer (B–D) to obtain a single cell suspension, which was washed twice by centrifugation (500 g for 7 min at 4°C) and re-suspended in culture medium composed of DMEM (Gibco), 5% FBS, 1 mM Sodium pyruvate (Gibco), 1X MEM amino acids solution (Sigma), 0.02% v/v/EDTA, 10 mM HEPES buffer (Cellgro) and 100 IU/mL Penicillin/100 […] Streptomycin solution (Cellgro).
The anti-leishmanial efficacy of the compounds was determined using the splenic explant model in a 96-well plate format. […] Because variation in the parasite burden between different explant cultures was expected, the concentration of cells used in each experiment was adjusted to give approximately 100 counts by luminometry (equivalent to ∼240,000 parasites). The number of surviving parasites was determined by luminometry as described above.

[2] = Cell toxicity (CC50) in the HepG2 cell line, CellTiter-Glo; format: cell-based, human; settings: human
Protocol: After 24 hours of culture at 37°C the number of viable cells was determined by quantification of the ATP present in the cell using the CellTiter-Glo luminescent Cell Viability Assay (Promega).

[3] = Leishmania donovani, ex vivo splenic explant, 48 h, luminometry, at least two experiments, compound from screened library, read-out: Ex vivo model EC50 Mean
[4] = Leishmania donovani, 48 h, ex vivo splenic explant, 48 h, luminometry, at least two experiments, compound from screened library, read-out: Ex vivo model EC50 Mean
[5] = HepG2 cells, HepG2 cell line, 24 h, ATP luminescence, compound from screened library, read-out: HepG2 CC50 Mean
[6] = HepG2 cell line, 24 h, ATP luminescence, compound from screened library, read-out: HepG2 CC50 Mean
[7] = Leishmania donovani, 50% reduction in parasite counts in the ex vivo model, read-out: EC50 Mean (Table S2)
[8] = 50% reduction in parasite counts in the ex vivo model, read-out: EC50 Mean (Table S2)

Molecule | EC50 [1, 3] [µM] | EC50 [1, 4] [µM] | CC50 at 24 h [2, 5] [µM] | further results
COc1ccc2cc1Oc1ccc(cc1)C[C@H]1c3cc(c(OC)cc3CCN1C)Oc1c(OC)c(OC)cc3c1[C@H](C2)N(C)CC3 [Tetrandrine] | 5.6 | – | – | CC50 at 24 h [2]: 31.4 µM
CN(C)CCCNc1c2c(=O)n(C)c(=O)nc-2n(C)c2ccccc12 [Pyrimido[4,5-b]quinoline-2,4(3H,10H)-dione, 5-[[3-(dimethylamino)propyl]amino]-3,10-dimethyl-, monohydrochloride] | – | 6.5 | 49.5 | –
CCC1=C(CC2NCCc3ccccc32)CC2c3cc(OC)c(OC)cc3CCN2C1 (stereo not drawn) [3-ethyl-9,10-dimethoxy-2-(1,2,3,4-tetrahydro-isoquinolin-1-ylmethyl)-1,6,7,11b-tetrahydro-4H-pyrido(2,1-a)isoquinoline] | 2.7 | – | – | CC50 [2, 6]: 24 µM
Oc1c(Cl)cc(Cl)c(Cl)c1Cc1c(O)c(Cl)cc(Cl)c1Cl [Hexachlorophene] | – | – | – | EC50 ([1]; Leishmania donovani, 48 h, read-out: Ex vivo model EC50 Mean): 13.6 µM
COc1ccc(-c2cc(=O)c3cc(OC)ccc3o2)cc1 [6,4'-dimethoxyflavone] | – | 17.9 | 95 | –
CC(C)=CCNc1ncnc2nc[nH]c12 [N6-Isopentenyladenine] | 20 | – | – | CC50 [2]: 225 µM
[H]/N=C(\N/C(=N/[H])NCCCCCCNC(=N)NC(=N)Nc1ccc(Cl)cc1)Nc1ccc(Cl)cc1 [Chlorhexidine] | 10.3 | – | 60.5 | –
CNCCCC12CCC(c3ccccc31)c1ccccc12 [Maprotiline Hydrochloride] | – | – | – | CC50 at 24 h [2]: 57.9 µM
Oc1ccc(Cl)c2cccnc12 [Cloxyquin] | – | – | 94.8 | –
COc1cc(O)c(C(=O)/C=C/c2ccc(O)c(OC)c2)c(OC)c1 [2',4-dihydroxy-3,4',6'-trimethoxychalcone] | – | 14.6 | 106 | –
OC1(c2ccccc2)c2ccccc2NC2=NCCN21 (stereo not drawn) [5-phenyl-3,10-dihydro-2H-imidazo[2,1-b]quinazolin-5-ol] | – | 12 | 107 | –
CC(NCCN(C)C)C1CC[C@H]2[C@@H]3CCc4cc(O)ccc4[C@H]3CC[C@]12C (stereo partly drawn) [17-(1-((2-(dimethylamino)ethyl)amino)ethyl)estra-1,3,5(10)-trien-3-ol] | – | 6.2 | – | CC50 at 24 h [2]: 51.6 µM
CN(C)CCCNc1cc(O)c2c(c1O)C(=O)c1ccccc1C2=O [2-((3-(dimethylamino)propyl)amino)-1,4-dihydroxyanthra-9,10-quinone] | 6.7 | – | – | CC50 [2, 6]: 75.1 µM
CNCCC=C1c2ccccc2CCc2ccccc21 [Nortriptyline Hydrochloride] | – | 7.8 | – | CC50 [2]: 52.6 µM
Clc1ccc2c(NC3CCC(N4CCCCC4)CC3)ccnc2c1 (stereo not drawn) [7-chloro-N-(4-(1-piperidinyl)cyclohexyl)-4-quinolinamine] | – | 6.3 | 67.4 | –
C[C@@H]1C[C@H]2CC[C@H](O2)[C@H](C)C(=O)O[C@@H](C)C[C@@H]2CC[C@@H](O2)[C@@H](C)C(=O)O[C@H](C)C[C@H]2CC[C@H](O2)[C@H](C)C(=O)O[C@@H](C)C[C@@H]2CC[C@@H](O2)[C@@H](C)C(=O)O1 [Nonactin] | 0.1 | – | – | CC50 [2]: 23.7 µM
Cc1cc(O)ccc1Cl [Chlorocresol] | 8 | – | 138 | EC50 [1, 7]: 8.02 µM
O=C1C=C2C=C[C@@H]3C[C@@]2(O1)[C@H]1CCCCN31 [Securinine] | 6.2 | – | – | CC50 [2, 6]: 47.7 µM
CN(C)CCCN1c2ccc(O)cc2Sc2ccc(Cl)cc21 [7-Hydroxychlorpromazine] | 11 | – | – | CC50 [2, 6]: 60.1 µM
C[C@]12C(=O)C=CCC1=CC[C@@H]1[C@@H]2CC[C@@]2(O)C(=O)O[C@@]3(C)[C@H]4C[C@]5(C)[C@@H](CO[C@@]16O[C@]23[C@H]5C6=O)C(=O)O4 [Physalin B] | 8.6 | – | – | EC50 [1, 7]: 8.59 µM; CC50 at 24 h [2, 6]: 50.7 µM
Neomycin sulfate | – | – | – | EC50 [1, 8]: 6.72 µM; Activity in the ex vivo system (screen or EC50 determination) ([1]; transgenic L. donovani, ex vivo system): identified as a compound with activity
COc1ccc2cc1Oc1ccc(cc1)C[C@H]1c3c(cc4c(c3Oc3cc5c(cc3OC)CCN(C)[C@@H]5C2)OCO4)CCN1C [Cepharanthine] | – | 11.4 | – | CC50 at 24 h [2]: 86.3 µM
Cc1c2ccncc2c(C)c2c1[nH]c1ccccc12 [Ellipticine] | – | 2.4 | – | CC50 [2]: 30.7 µM

Molecule | EC50 [1, 3] [µM] | EC50 [1, 4] [µM] | CC50 at 24 h [2, 5] [µM] | further results
CCN(CC)CCN1C(=O)c2cccc3cc(N)cc(c23)C1=O [1H-Benz[de]isoquinoline-1,3(2H)-dione, 5-amino-2-[2-(diethylamino)ethyl]-] | 8.4 | – | – | CC50 [2, 6]: 69.3 µM
N=C1C=CC(=C(c2ccc(N)cc2)c2ccc(N)cc2)C=C1 [Pararosaniline Pamoate] | 2.7 | – | – | CC50 at 24 h [2]: 37.1 µM
CN(C)CCCN1c2ccccc2Sc2ccc(Cl)cc21 [Chlorpromazine] | – | – | – | EC50 [1, 7]: 15.1 µM; CC50 at 24 h [2]: 96.1 µM
NCCCCNCCCN [Spermidine Trihydrochloride] | – | 20 | 132 | –
COc1cc(NCCC2CCCCN2)c2ncccc2c1 (stereo not drawn) [6-methoxy-N-(2-(2-piperidinyl)ethyl)-8-quinolinamine] | 5.1 | – | – | CC50 at 24 h [2]: 108 µM
CN[C@H]1CC[C@@H](c2ccc(Cl)c(Cl)c2)c2ccccc21 [Sertraline Hydrochloride] | – | – | – | CC50 at 24 h [2]: 82.5 µM
COc1cc2ccccc2c2cc([N+](=O)[O-])oc12 [Naphtho(2,1-b)furan, 4-methoxy-2-nitro-] | – | 6.8 | – | CC50 at 24 h [2]: 64.3 µM
CC[C@@]1(O)C[C@H](O[C@H]2C[C@H](N(C)C)[C@H](O)[C@H](C)O2)c2c(cc3c(c2O)C(=O)c2c(O)cccc2C3=O)[C@H]1C(=O)OC [Aklavine Hydrochloride] | 0.7 | – | – | CC50 [2, 6]: 14 µM
Oc1c(I)cc(Cl)c2cccnc12 [Clioquinol] | 11.3 | – | 60 | –
CCCCCCCCCCCCCCCC[N+](C)(C)C [Cetrimonium Bromide] | 6.1 | – | – | CC50 [2, 6]: 42.9 µM
C[C@@H]1[C@H](O)[C@@H](C)/C=C/C=C/C=C/C=C/C=C/C=C/C=C/[C@H](O[C@@H]2O[C@H](C)[C@@H](O)[C@H](N)[C@@H]2O)C[C@@H]2O[C@](O)(C[C@@H](O)C[C@@H](O)[C@H](O)CC[C@@H](O)C[C@@H](O)CC(=O)O[C@H]1C)C[C@H](O)[C@H]2C(=O)O [amphotericin B deoxycholate] | – | – | – | EC50 ([1]; Leishmania donovani, ex vivo model, freshly solubilized compound from commercial source, read-out: EC50): 0.24 ± 0.02 µM
CN(C)CCCN1c2ccccc2Sc2ccc3ccccc3c21 [3-(12H-benzo[a]phenothiazin-12-yl)-N,N-dimethyl-1-propanamine] | 11.5 | – | – | CC50 [2, 6]: 66.6 µM
CSc1ccc2c(c1)c(CCN)c(C)n2Cc1ccccc1Cl [2-[1-[(2-chlorophenyl)methyl]-2-methyl-5-methylsulfanyl-indol-3-yl]ethanamine] | 9.4 | – | – | CC50 [2, 6]: 71.8 µM
CN(C)CC1CCC2=C(C1=O)C(c1ccc(Cl)c(Cl)c1)C1=C(CCC(CN(C)C)C1=O)O2 (stereo not drawn) [9-(3,4-Dichlorophenyl)-2,7-bis(dimethylaminomethyl)-3,4,5,6,7,9-hexahydro-2H-xanthene-1,8-dione] | – | 9.4 | 49.8 | –
CC(C)(C)NCCC(O)c1cc(C(F)(F)F)nc2c(C(F)(F)F)cccc12 (stereo not drawn) [1-(2,8-bis(trifluoromethyl)-4-quinolinyl)-3-(tert-butylamino)-1-propanol] | – | 7.9 | 44.2 | –
C=C1C(=O)O[C@H]2[C@H]1CC/C(C)=C/CC[C@@]1(C)O[C@@H]21 [Parthenolide] | – | 13.3 | 81.1 | EC50 [1, 7]: 13.3 µM
C=C1C(=O)O[C@H]2C[C@@H]1C(OC(C)=O)C/C(C)=C/CC/C(C)=C/CC[C@@]2(C)O (stereo partly drawn) [Crassin Acetate] | – | 7.7 | 41.1 | –
Clc1ccc2c(NCCNC3CCCCC3)ccnc2c1 [N1-(7-chloro-4-quinolinyl)-N2-cyclohexyl-1,2-ethanediamine] | – | 3.9 | 46.2 | –
Monensin Sodium | – | – | – | EC50 [1, 8]: 2.44 µM; EC50 ([1]; ex vivo splenic explant, 48 h, luminometry, at least two experiments, compound from screened library, read-out: Ex vivo model EC50 Mean): 2.4 µM
Cc1nccc2c1[nH]c1cc(O)ccc12 [Harmol Hydrochloride] | 11.2 | – | – | CC50 [2, 6]: 60.2 µM
CN(C)CCCNc1c2c(nc3ccc(Cl)cc13)CCCC2 [N-(7-chloro-1,2,3,4-tetrahydroacridin-9-yl)-N',N'-dimethyl-propane-1,3-diamine] | 6.4 | – | – | CC50 [2, 6]: 58.8 µM
C[C@]12CC[C@H]3[C@@H](CC=C4C[C@@H](O)CC[C@@]43C)[C@@H]1CC[C@@H]2N(CCO)CCO [17beta-[Bis(2-hydroxyethyl)amino]androst-5-en-3beta-ol] | – | 7.5 | 88.5 | –
C=C1C(=O)O[C@H]2C[C@@H]1[C@@H](OC(C)=O)C/C(C)=C/CC/C(C)=C\CC[C@@]2(C)O [Crassin] | – | 8.9 | 51.6 | –
